# Measured values published in patent US8124581B2, “Methods for treating breast cancer using NRIF3 related molecules” (New York University, priority 2004, dated 2012).
# Entries after “also recorded” stand apart in the source; their conditions may differ. Where a SMILES comes first, the peptide text is derived from it. The star is where a group is joined. Cbz = O=C(OCc1ccccc1)*; CH2F = FC*
# Tests used:
# [1] = system: T-47D cells; experiment: Modulation of NRIF3- or DD1-mediated apoptosis in T-47D cells (TUNEL); type: cell-based, human
# Protocol: (§1) Cell culture and transfection conditions. All breast cancer cell lines were maintained in DMEM (GIBCO-BRL, Life Technologies) supplemented with 10% fetal bovine serum (FBS). Other cells were cultured in DMEM supplemented with either 10% FBS or 10% Hyclone defined/supplemented bovine calf serum. For most of the transient transfections, T-47D cells were plated at a density of 3×10^4 cells/well on coverslips in 24-well tissue culture plates. About 20 h later, the cells were transfected with indicated plasmid(s) by Genefect transfection reagent (Molecula, USA) according to manufacturer's protocol. Generally, the amount of plasmids used in transfections was the following: GFP or GFP-fusion 300-500 ng, Bcl-2 or Bcl-xL 1-1.5 μg, AIF-GFP 500 ng, Gal4-DD1, GAl4-DD3 or Gal4 control 0.5-1 μg. After transfection, cells were incubated in DMEM/10% FBS medium for 5 h to 24 h before being harvested and processed for appropriate analyses. Transient transfection of other breast cancer cell lines were carried out similarly, except that the transfection reagent used was Lipofectamine 2000 (Life technologies). All other cells were transfected using Geneporter 2 (Gene Therapy Systems). When indicated, the following compounds were included in the medium: all-trans retinoic acid (100 nM), etopside (100 μM), zVAD-fmk (100 μM), zVDVAD-fmk (20 μM), TNFα (10 ng/ml) and cycloheximide (10 μg/ml).
# siRNA studies. A small interference RNA (siRNA) duplex that efficiently silences human caspase-2 expression has been previously described (27), and was purchased from Dharmacon. The siRNA was dissolved at 20 pmol/μl in H2O. T-47D cells were plated at the density of 1.5×10^5 cells/well in 6-well plates the day before being transfected with siRNA. Transfection was carried out using Oligofectamine (Invitrogen), with 12 μl of dissolved siRNA and 12 μl of Oligofectamine reagent. Cells were fed with additional DMEM/10% FBS the second day, and harvested about 42 h after siRNA transfection. […] The harvested cells were then re-plated on cover-slips in 24-well plates as described earlier, and incubated for a few hours to let attachment occur. Cells were then transfected with the indicated GFP or GFP-fusion vectors as described earlier or treated with etoposide (100 μM). Cells were harvested about 20-24 h later and processed for appropriate assays. To document caspase-2 knock down, total lysates from siRNA transfected or control cells were quantified for protein concentrations. Equal amount of proteins were then subjected to SDS-PAGE, followed by Western analysis using a monoclonal antibody against caspase-2 (11B4, from Alexis).
# Apoptosis assays. Cells plated on cover-slips in 24-well tissue culture plates were transfected and/or treated with appropriate compounds as indicated. Generally, cells were harvested within 20-24 h and processed for TUNEL and/or Annexin V assays. For Annexin V assay, cells were washed 3× with PBS and assayed using ApoAlert Nitric Oxide/Annexin V Dual Sensor Kit (BD Biosciences, USA) according to manufacturer's protocol. […] For quantitative analysis, fields consisting of at least several hundred cells were scanned, and a number of representative fields were photographed using GFP and rhodamine filters. Green and red cells from the same field were then counted. Generally, about one hundred of total green cells were counted for each data point. The percent of green cells counted that are also red were then calculated.
# [2] = system: ER+ derivative of MB-MDA-231; experiment: TUNEL apoptosis assay of transfected ER+ derivative of MB-MDA-231; type: cell-based, human
# Protocol: as §1, with “Transient transfection of other breast cancer cell lines were carried out similarly, except that the transfection reagent used was Lipofectamine 2000 (Life technologies). All other cells were transfected using Geneporter 2 (Gene Therapy Systems). When indicated, the following compounds were included in the medium: all-trans retinoic acid (100 nM), etopside (100 μM), zVAD-fmk (100 μM), zVDVAD-fmk (20 μM), TNFα (10 ng/ml) and cycloheximide (10 μg/ml).” left out
# (§2) Apoptosis assays. […] For quantitative analysis, fields consisting of at least several hundred cells were scanned, and a number of representative fields were photographed using GFP and rhodamine filters. Green and red cells from the same field were then counted. Generally, about one hundred of total green cells were counted for each data point. The percent of green cells counted that are also red were then calculated.
# [3] = system: GH4C1; experiment: TUNEL apoptosis assay of transfected GH4C1 cells; type: cell-based
# Protocol: as §1, with “Transient transfection of other breast cancer cell lines were carried out similarly, except that the transfection reagent used was Lipofectamine 2000 (Life technologies). All other cells were transfected using Geneporter 2 (Gene Therapy Systems). When indicated, the following compounds were included in the medium: all-trans retinoic acid (100 nM), etopside (100 μM), zVAD-fmk (100 μM), zVDVAD-fmk (20 μM), TNFα (10 ng/ml) and cycloheximide (10 μg/ml).” left out
# as §2
# [4] = system: T-47D cells; experiment: TUNEL apoptosis assay of transfected T-47D cells; type: cell-based, human; details: T-47D cells transfected with expression vector
# Protocol: as §1, with “Transient transfection of other breast cancer cell lines were carried out similarly, except that the transfection reagent used was Lipofectamine 2000 (Life technologies). All other cells were transfected using Geneporter 2 (Gene Therapy Systems). When indicated, the following compounds were included in the medium: all-trans retinoic acid (100 nM), etopside (100 μM), zVAD-fmk (100 μM), zVDVAD-fmk (20 μM), TNFα (10 ng/ml) and cycloheximide (10 μg/ml).” left out
# as §2
# [5] = system: COS-1; experiment: TUNEL apoptosis assay of transfected COS-1 cells; type: cell-based
# Protocol: as §1, with “Transient transfection of other breast cancer cell lines were carried out similarly, except that the transfection reagent used was Lipofectamine 2000 (Life technologies). All other cells were transfected using Geneporter 2 (Gene Therapy Systems). When indicated, the following compounds were included in the medium: all-trans retinoic acid (100 nM), etopside (100 μM), zVAD-fmk (100 μM), zVDVAD-fmk (20 μM), TNFα (10 ng/ml) and cycloheximide (10 μg/ml).” left out
# as §2
# [6] = system: UOK-145; experiment: TUNEL apoptosis assay of transfected UOK-145 cells; type: cell-based
# Protocol: as §1, with “Transient transfection of other breast cancer cell lines were carried out similarly, except that the transfection reagent used was Lipofectamine 2000 (Life technologies). All other cells were transfected using Geneporter 2 (Gene Therapy Systems). When indicated, the following compounds were included in the medium: all-trans retinoic acid (100 nM), etopside (100 μM), zVAD-fmk (100 μM), zVDVAD-fmk (20 μM), TNFα (10 ng/ml) and cycloheximide (10 μg/ml).” left out
# as §2
# [7] = system: MB-MDA-435 cells; experiment: TUNEL apoptosis assay of transfected MB-MDA-435 cells; type: cell-based, human; details: MB-MDA-435 (ER−)
# Protocol: as §1, with “Transient transfection of other breast cancer cell lines were carried out similarly, except that the transfection reagent used was Lipofectamine 2000 (Life technologies). All other cells were transfected using Geneporter 2 (Gene Therapy Systems). When indicated, the following compounds were included in the medium: all-trans retinoic acid (100 nM), etopside (100 μM), zVAD-fmk (100 μM), zVDVAD-fmk (20 μM), TNFα (10 ng/ml) and cycloheximide (10 μg/ml).” left out
# as §2
# [8] = system: AIF-GFP; experiment: AIF-GFP translocation from mitochondria to nucleus in T-47D cells; type: cell-based, human; details: as early as 5 h after transfection
# Protocol: as §1, with “Transient transfection of other breast cancer cell lines were carried out similarly, except that the transfection reagent used was Lipofectamine 2000 (Life technologies). All other cells were transfected using Geneporter 2 (Gene Therapy Systems). When indicated, the following compounds were included in the medium: all-trans retinoic acid (100 nM), etopside (100 μM), zVAD-fmk (100 μM), zVDVAD-fmk (20 μM), TNFα (10 ng/ml) and cycloheximide (10 μg/ml).” left out
# as §2
# [9] = system: HeLa cells; experiment: TUNEL apoptosis assay of transfected HeLa cells; type: cell-based
# Protocol: as §1, with “Transient transfection of other breast cancer cell lines were carried out similarly, except that the transfection reagent used was Lipofectamine 2000 (Life technologies). All other cells were transfected using Geneporter 2 (Gene Therapy Systems). When indicated, the following compounds were included in the medium: all-trans retinoic acid (100 nM), etopside (100 μM), zVAD-fmk (100 μM), zVDVAD-fmk (20 μM), TNFα (10 ng/ml) and cycloheximide (10 μg/ml).” left out
# as §2
# [10] = system: HBL100 cells; experiment: TUNEL apoptosis assay of transfected HBL100 cells; type: cell-based; details: HBL100, non-malignant immortalized breast epithelial cell line
# Protocol: as §1, with “Transient transfection of other breast cancer cell lines were carried out similarly, except that the transfection reagent used was Lipofectamine 2000 (Life technologies). All other cells were transfected using Geneporter 2 (Gene Therapy Systems). When indicated, the following compounds were included in the medium: all-trans retinoic acid (100 nM), etopside (100 μM), zVAD-fmk (100 μM), zVDVAD-fmk (20 μM), TNFα (10 ng/ml) and cycloheximide (10 μg/ml).” left out
# as §2
# [11] = system: MB-MDA-231 cells; experiment: TUNEL apoptosis assay of transfected MB-MDA-231 cells; type: cell-based, human; details: MB-MDA-231 (ER−)
# Protocol: as §1, with “Transient transfection of other breast cancer cell lines were carried out similarly, except that the transfection reagent used was Lipofectamine 2000 (Life technologies). All other cells were transfected using Geneporter 2 (Gene Therapy Systems). When indicated, the following compounds were included in the medium: all-trans retinoic acid (100 nM), etopside (100 μM), zVAD-fmk (100 μM), zVDVAD-fmk (20 μM), TNFα (10 ng/ml) and cycloheximide (10 μg/ml).” left out
# as §2
# [12] = system: 293; experiment: TUNEL apoptosis assay of transfected 293 cells; type: cell-based
# Protocol: as §1, with “Transient transfection of other breast cancer cell lines were carried out similarly, except that the transfection reagent used was Lipofectamine 2000 (Life technologies). All other cells were transfected using Geneporter 2 (Gene Therapy Systems). When indicated, the following compounds were included in the medium: all-trans retinoic acid (100 nM), etopside (100 μM), zVAD-fmk (100 μM), zVDVAD-fmk (20 μM), TNFα (10 ng/ml) and cycloheximide (10 μg/ml).” left out
# as §2
# [13] = system: MCF-7 cells; experiment: TUNEL apoptosis assay of transfected MCF-7 cells; type: cell-based, human; details: MCF-7 (ER+)
# Protocol: as §1, with “Transient transfection of other breast cancer cell lines were carried out similarly, except that the transfection reagent used was Lipofectamine 2000 (Life technologies). All other cells were transfected using Geneporter 2 (Gene Therapy Systems). When indicated, the following compounds were included in the medium: all-trans retinoic acid (100 nM), etopside (100 μM), zVAD-fmk (100 μM), zVDVAD-fmk (20 μM), TNFα (10 ng/ml) and cycloheximide (10 μg/ml).” left out
# as §2
# [14] = system: HeLa cells; experiment: Apoptosis of HeLa cells treated with TNFα and cycloheximide; type: cell-based; details: same dose (100 uM); data not shown
# Protocol: as §1
# [15] = 100 uM inhibitor prior to and after transfection, T-47D
compound,measurement,setting,value
COC(=O)C[C@H](NC(=O)[C@H](C)NC(=O)[C@@H](NC(=O)[C@H](CC(=O)OC)NC(=O)[C@@H](NC(=O)OCc1ccccc1)C(C)C)C(C)C)C(=O)CF [zVDVAD-fmk] (Cbz-VD(OMe)VAD(OMe)-CH2F),effect of caspase-2 chemical inhibitor on DD1-induced apoptosis,"[1]; T-47D, 20 μM in medium, data not shown",efficiently blocked
"DD1: death domain 1, residues 20-50 of NRIF3 (SEQ ID NO:11), co-resides with transrepression domain RepD1 (PSKITRKKSVITYSPTTGTCQMSLFASPTSS; sequence of DD1)",induction of apoptosis,[2],efficient apoptosis
same,induction of apoptosis,[3],did not lead to apoptosis
same,induction of apoptosis (TUNEL and/or Annexin V),[4],efficient apoptosis; also recorded: underwent rapid apoptosis
same,induction of apoptosis (TUNEL and/or Annexin V),[4]; listed as RepD1,efficiently induced death
same,induction of apoptosis,[5],did not lead to apoptosis
same,induction of apoptosis,[6],did not lead to apoptosis
same,induction of apoptosis,[7],efficient apoptosis
same,sub-cellular location of AIF-GFP upon co-expression,[8],translocation of AIF-GFP from mitochondria to the nucleus
same,induction of apoptosis,[9],did not lead to apoptosis; also recorded: no detectable cell death
same,induction of apoptosis,[10],efficient apoptosis
same,induction of apoptosis,[11],efficient apoptosis
same,induction of apoptosis,[12],did not lead to apoptosis; also recorded: no detectable cell death
same,induction of apoptosis,[13],efficient apoptosis
COC(=O)C[C@H](NC(=O)[C@H](C)NC(=O)[C@@H](NC(=O)OCc1ccccc1)C(C)C)C(=O)CF [zVAD-fmk] (Cbz-Val-Ala-Asp(OMe)-CH2F),effect on apoptosis mediated by GFP-NRIF3,[1]; [15],did not inhibit apoptosis
same,effect on apoptosis mediated by GFPNLS-DD1,[1]; [15],did not inhibit apoptosis
same,cell death caused by inhibitor alone,"[1]; T-47D, no transfected death construct, data not shown",did not cause cell death
same,effect on apoptosis of HeLa cells treated with TNFα and cycloheximide,[14],significantly inhibit apoptosis
Bcl-2: anti-apoptotic Bcl-2 family protein co-expressed from a vector,effect of co-expression on DD1-mediated apoptosis,[1]; co-expressed with GFPNLS-DD1 in T-47D,significantly inhibited
